Reference: patent US9464075B2 (priority 2008, dated 2016)

Columns and labels:
A/M2-V27G = A/M2-V27G (Influenza A virus, UniProt P0DOF5, V27G); type: cell-based, Influenza virus A/Udorn/72
A/M2-L26F = A/M2-L26F (Influenza A virus, UniProt P0DOF5, L26F); type: cell-based, Influenza virus A/Udorn/72
A/M2-A30T = A/M2-A30T (Influenza A virus, UniProt P0DOF5, A30T); type: cell-based, Influenza virus A/Udorn/72
A/M2-G34E = A/M2-G34E (Influenza A virus, UniProt P0DOF5, G34E); type: cell-based, Influenza virus A/Udorn/72
A/M2-S31N = A/M2-S31N (Influenza A virus, UniProt P0DOF5, S31N); type: cell-based, Influenza virus A/Udorn/72
A/M2-V27A [1] = target: T1, A/M2-V27A (Influenza A virus, UniProt P0DOF5, V27A); type: cell-based, Influenza virus A/Udorn/72
[2] = system: influenza virus, containing the A/M2-V27A mutation; type: cell-based
A/M2-V27A [3] = target: T1, A/M2-V27A; type: cell-based

Row | Structure (SMILES) | % remaining activity after application of 100 μM compound (A/M2-V27G) [%] | % remaining activity after application of 100 μM compound (A/M2-L26F) [%] | % remaining activity after application of 100 μM compound (A/M2-A30T) [%] | % remaining activity after application of 100 μM compound (A/M2-G34E) [%] | % remaining activity after application of 100 μM compound (A/M2-S31N) [%] | % remaining activity after application of 100 μM compound (A/M2-V27A [1]) [%] | inhibition of plaque formation (in words) [2] | inhibition of the mutant (in words) (A/M2-S31N) | concentration at which plaque formation was reduced [2] [µM] | AM2 V27A % inhibition at 100 μM (A/M2-V27A [3])
1 | NC12CC3CC(CC(C3)C1)C2 [Amantadine, reference compound] | 95 ± 4.9 | 51.8 ± 3.5 | 104.6 ± 4.3 | 100.4 ± 6.7 | 65.3 ± 2.7 | 93.07 ± 1.9 | failed to inhibit plaque formation |  |  | 
2 | C1CCC2(CC1)CCN(C1=NCCN1)CC2 [BL-1743, 3-(4,5-Dihydro-1H-imidazol-2-yl)-3-aza-spiro[5.5]undecane, reference compound] | 82.9 ± 9.3 | 89.2 ± 4.8 | 102 ± 2.3 | 89.8 ± 6.9 | 100 ± 0.67 | 97.4 ± 1.8 | failed to inhibit plaque formation |  |  | 
3 | Cl.NC1CCC2(CCCCC2)CC1 [Compound 8] | 87.9 ± 6.1 | 32.4 ± 3.3 | 98.1 ± 7.0 | 96. ± 5.9 | 99.1 ± 0.9 | 46.6 ± 6.6 |  | little inhibition | 5 | 
4 | CNC1CCC2(CCCCC2)CC1.Cl [Compound 9] | 89.6 ± 4.1 | 72.6 ± 8.4 | 101. ± 3.2 | 101.7 ± 2.8 | 100 ± 4.1 | 70.2 ± 1.55 |  |  |  | 
5 | Cl.NNC1CCC2(CCCCC2)CC1 [Compound 31, N′-Spiro[5.5]undec-3-yl-hydrazinium chloride] |  |  |  |  |  |  |  |  |  | 31 (7.1%)
6 | Cl.NC1CSC2(CCCCC2)SC1 [Compound 33, 1,5-Dithia-spiro[5.5]undec-3-yl-ammonium chloride] |  |  |  |  |  |  |  |  |  | 33 (0%) 34 (46.9%)
7 | NC1CSC2(CCCCCC2)SC1 [Compound 34, 1,5-Dithia-spiro[5.6]dodec-3-yl-ammonium chloride] |  |  |  |  |  |  |  |  |  | 33 (0%) 34 (46.9%)
8 | N=C(N)NC1CCC2(CCCCC2)CC1 [Compound 35] |  |  |  |  |  |  |  |  |  | 35 (14.6%)
